Some results are limits rather than exact numbers.

The test system of one experiment is Utrophin A promoter linked to a luciferase reporter gene (H2K/mdx/Utro A reporter cell line). The experiment in a line: Luciferase reporter assay (murine H2K cells). The following applies: Mus musculus, H2K mdx. A general note: In a reporter assay the amount or activity of a reporter protein is the signal.
Take `O=C(CSc1nc2ccccc2s1)N1CCCCC1` [Example 617, 2-(benzo[d]thiazol-2-ylthio)-1-(piperidin-1-yl)ethanone]: the activity at 10 µM was above 401%.
Turning to `Cc1cc(-c2nc3cc(N)ccc3o2)ccc1Br` [Example 649, 2-(4-bromo-3-methylphenyl)benzo[d]oxazol-5-amine], the activity at 10 µM was in the range of 301 to 400%.
The same measure, in the same setting: under `O=C(Nc1nc2ccccc2[nH]1)c1cccc(Cl)c1` [Example 679, N-(1H-benzo[d]imidazol-2-yl)-3-chlorobenzamide] stands 201 to 300%; under `O=C(Nc1ccc2c(c1)OCO2)c1sc2ccccc2c1Cl` [Example 618, N-(benzo[d][1,3]dioxol-5-yl)-3-chlorobenzo[b]thiophene-2-carboxamide], above 401%.
Take `CC(=O)Nc1ccc(-c2nc3ccccc3[nH]2)cc1` [Example 591, N-(4-(1H-Benzo[d]imidazol-2-yl)phenyl)acetamide]: the activity at 10 µM was 301 to 400%.
Regarding `COc1ccccc1-c1nc2ccccc2s1` [Example 522, 2-(2-methoxyphenyl)benzo[d]thiazole], the activity at 10 µM is below 200%.
The same measure, in the same setting: next, `O=S(=O)(c1ccc(-c2nc3ccccc3s2)cc1)N1CCCCC1` [Example 516, 2-(4-(piperidin-1-ylsulfonyl)phenyl)benzo[d]thiazole]: 201 to 300%; `Nc1ccc2oc(-c3ccccc3F)nc2c1` [Example 569, 2-(2-fluorophenyl)benzo[d]oxazol-5-amine]: 301 to 400%; `O=C(Nc1nc2ccccc2s1)c1cc2ccccc2o1` [Example 626, N-(benzo[d]thiazol-2-yl)benzofuran-2-carboxamide]: above 401%.
As for `Cc1ccc2nc(-c3cccc(NC(=O)c4ccco4)c3)[nH]c2c1` [Example 538, N-(3-(6-methyl-1H-benzo[d]imidazol-2-yl)phenyl)furan-2-carboxamide], the activity at 10 µM is below 200%.
Consider `COc1ccc(-c2nc3cc([N+](=O)[O-])ccc3[nH]2)cc1` [Example 586, 2-(4-Methoxyphenyl)-5-nitro-1H-benzo[d]imidazole], for which the activity at 10 µM was in the range of 201 to 300%.
In the case of `Cc1ccccc1C(=O)Nc1nc2ccccc2[nH]1` [Example 648, N-(1H-benzo[d]imidazol-2-yl)-2-methylbenzamide], the activity at 10 µM was 301 to 400%.
Regarding `CC(C)(C)c1ccc2oc(-c3ccc(N)cc3)nc2c1` [Example 593, 4-(5-Tert-butylbenzo[d]oxazol-2-yl)aniline], the activity at 10 µM lay within 301 to 400%.
With `CC(=O)Nc1ccc2[nH]c(-c3ccco3)nc2c1` [Example 534, N-(2-(furan-2-yl)-1H-benzo[d]imidazol-5-yl)acetamide], the activity at 10 µM is below 200%.
Take `Nc1ccc(-c2nc3cc(Cl)cc(Cl)c3o2)cc1` [Example 518, 4-(5,7-dichlorobenzo[d]oxazol-2-yl)aniline]: the activity at 10 µM lay within 201 to 300%.
Take `Nc1ccc(-c2nc3ccccc3[nH]2)cc1` [Example 475, 4-(1H-benzo[d]imidazol-2-yl)aniline]: the activity at 10 µM was below 200%.
On the same count and under the same terms, next, `Nc1ccc(Oc2ccc(-c3nc4ccccc4[nH]3)cc2)cc1` [Example 557, 4-(4-(1H-benzo[d]imidazol-2-yl)phenoxy)aniline]: above 401%; `CCCc1nc2cc(S(=O)(=O)CC)ccc2o1` [Example 571, 5-(ethylsulfonyl)-2-propylbenzo[d]oxazole]: below 200%.
Take `O=C(Nc1ccc(-c2nc3ccccc3[nH]2)cc1)c1ccco1` [Example 562, N-(4-(1H-benzo[d]imidazol-2-yl)phenyl)furan-2-carboxamide]: the activity at 10 µM is 301 to 400%.
Regarding `CSc1ccc(-c2nc3ccccc3[nH]2)cc1` [Example 543, 2-(4-(methylthio)phenyl)-1H-benzo[d]imidazole], the activity at 10 µM was 201 to 300%.
In the case of `Cc1ccc2[nH]c(-c3ccccc3N)nc2c1` [Example 554, 2-(5-methyl-1H-benzo[d]imidazol-2-yl)aniline], the activity at 10 µM was in the range of 301 to 400%.
On to `CCC(=O)Nc1ccc(-c2nc3ccccc3s2)cc1` [Example 667, N-(4-(benzo[d]thiazol-2-yl)phenyl)propionamide], for which the activity at 10 µM was 201 to 300%.
Same read-out and setting: next, `Cc1cc2nc(-c3cc(N)ccc3O)oc2cc1C` [Example 559, 4-amino-2-(5,6-dimethylbenzo[d]oxazol-2-yl)phenol]: 301 to 400%; `COc1ccc(OCc2nc3ccccc3n2C)cc1` [Example 528, 2-((4-methoxyphenoxy)methyl)-1-methyl-1H-benzo[d]imidazole]: 201 to 300%; `CC(=O)Nc1cccc(-c2nc3ccccc3[nH]2)c1` [Example 503, N-(3-(1H-benzo[d]imidazol-2-yl)phenyl)acetamide]: below 200%.
As for `CCc1ccc2oc(-c3cc(N)ccc3O)nc2c1` [Example 551, 4-amino-2-(5-ethylbenzo[d]oxazol-2-yl)phenol], the activity at 10 µM is below 200%.
On the same count and under the same terms, under `Clc1ccc(OCc2nc3ccccc3n2Cc2ccccc2Cl)c(Cl)c1` [Example 465, 1-(2-chlorobenzyl)-2-((2,4-dichlorophenoxy)methyl)-1H-benzo[d]imidazole] stands below 200%; under `COc1ccc2oc(-c3ccc(C)c(N)c3)nc2c1` [Example 686, 5-(5-methoxybenzo[d]oxazol-2-yl)-2-methylaniline], 201 to 300%; under `CC(=O)Nc1ccc(-c2nc3ccccc3o2)cc1` [Example 589, N-(4-(Benzo[d]oxazol-2-yl)phenyl)acetamide], 301 to 400%.
Take `CCOCC(=O)Nc1ccc(-c2nc3ccc(C)cc3s2)cc1` [Example 657, 2-ethoxy-N-(4-(6-methylbenzo[d]thiazol-2-yl)phenyl)acetamide]: the activity at 10 µM lay within 301 to 400%.
For the compound `Fc1ccccc1-c1nc2ccccc2[nH]1` [Example 507, 2-(2-fluorophenyl)-1H-benzo[d]imidazole], the activity at 10 µM was 201 to 300%.
On to `Cn1c(COc2ccccc2)nc2ccccc21` [Example 474, 1-methyl-2-(phenoxymethyl)-1H-benzo[d]imidazole], for which the activity at 10 µM was below 200%.
Take `Cc1ccc(C)c(OCc2nc3ccccc3[nH]2)c1` [Example 548, 2-((2,5-dimethylphenoxy)methyl)-1H-benzo[d]imidazole]: the activity at 10 µM was below 200%.
Consider `O=C(Nc1nc2ccc(F)cc2s1)c1ccccc1Br` [Example 629, 2-bromo-N-(6-fluorobenzo[d]thiazol-2-yl)benzamide], for which the activity at 10 µM is above 401%.
`COc1ccc(-c2nc3cc(N)ccc3o2)cc1` [Example 512, 2-(4-methoxyphenyl)benzo[d]oxazol-5-amine]: the activity at 10 µM was below 200%.
Turning to `CC(C)c1ccc2oc(-c3ccc(N)cc3O)nc2c1` [Example 565, 5-amino-2-(5-isopropylbenzo[d]oxazol-2-yl)phenol], the activity at 10 µM was 301 to 400%.
On to `CN(C)c1ccc(-c2nc3cc([N+](=O)[O-])ccc3[nH]2)cc1` [Example 509, N,N-dimethyl-4-(5-nitro-1H-benzo[d]imidazol-2-yl)aniline], for which the activity at 10 µM is 201 to 300%.
As for `Nc1c(C(=O)Nc2ccccc2F)sc2nc3c(cc12)CCC3` [Example 673, 3-amino-N-(2-fluorophenyl)-6,7-dihydro-5H-cyclopenta[e]thieno[2,3-b]pyridine-2-carboxamide], the activity at 10 µM lay in the range of 201 to 300%.
For `Cc1ccnc(Nc2nc3ccccc3o2)n1` [Example 682, N-(4-methylpyrimidin-2-yl)benzo[d]oxazol-2-amine], the activity at 10 µM lay within 201 to 300%.
Regarding `Clc1ccc(-c2nc3cc(CN4CCCCC4)ccc3o2)cc1` [Example 469, 2-(4-chlorophenyl)-5-(piperidin-1-ylmethyl)benzo[d]oxazole], the activity at 10 µM was below 200%.
In the case of `O=C(Nc1ccc(-c2nc3ccccc3s2)cc1)C1CC1` [Example 661, N-(4-(benzo[d]thiazol-2-yl)phenyl)cyclopropanecarboxamide], the activity at 10 µM was 301 to 400%.
For `Nc1ccc2nc(-c3ccc(-c4nc5ccc(N)cc5[nH]4)cc3)[nH]c2c1` [Example 476, 2,2′-(1,4-phenylene)bis(1H-benzo[d]imidazol-6-amine)], the activity at 10 µM was below 200%.
On the same count and under the same terms, under `COCc1nc2ccccc2[nH]1` [Example 499, 2-(methoxymethyl)-1H-benzo[d]imidazole] stands below 200%; under `Cc1ccc2[nH]c(-c3ccc(N)cc3)nc2c1` [Example 532, 4-(5-methyl-1H-benzo[d]imidazol-2-yl)aniline], below 200%; under `CCSc1nc2ccc(N)cc2s1` [Example 563, 2-(ethylthio)benzo[d]thiazol-6-amine], 201 to 300%.
On to `O=C(Nc1ccc(-c2nc3ccccc3[nH]2)cc1)c1cccs1` [Example 585, N-(4-(1H-Benzo[d]imidazol-2-yl)phenyl)thiophene-2-carboxamide], for which the activity at 10 µM was above 401%.
As for `Oc1cccc(-c2nc3ccccc3s2)c1` [Example 594, 3-(Benzo[d]thiazol-2-yl)phenol], the activity at 10 µM was above 401%.
Regarding `CN(C)S(=O)(=O)c1ccc2nc(NC(=O)c3cccs3)sc2c1` [Example 683, N-(6-(N,N-dimethylsulfamoyl)benzo[d]thiazol-2-yl)thiophene-2-carboxamide], the activity at 10 µM was 201 to 300%.
Same read-out and setting: under `Cc1ccc(-c2nc3ccccc3[nH]2)cc1N` [Example 620, 5-(1H-benzo[d]imidazol-2-yl)-2-methylaniline] stands above 401%.
`c1ccc(OCc2nc3ccccc3s2)cc1` [Example 633, 2-(phenoxymethyl)benzo[d]thiazole]: the activity at 10 µM fell in the range of 301 to 400%.
For `Cc1ccc(-c2nc3ccccc3[nH]2)cc1` [Example 613, 2-p-Tolyl-1H-benzo[d]imidazole], the activity at 10 µM was 301 to 400%.
As for `CC(=O)Oc1ccc(C(=O)Nc2ccc(-c3nc4ccccc4[nH]3)cc2)cc1` [Example 655, 4-(4-(1H-benzo[d]imidazol-2-yl)phenylcarbamoyl)phenyl acetate], the activity at 10 µM lay in the range of 301 to 400%.

Still in this experiment, the particulars now being: Table 1; luciferase level relative to control; final concentration of 10 μM.
With `CC(=O)c1ccc2oc(-c3ccc(Cl)c(Cl)c3)nc2c1` [Example 453, 1-(2′-(3″,4″-Dichlorophenyl)benzo[d]oxazol-5′-yl)ethanone], the Activity result is “++++ (Above 401% relative to control)”.
